PMC6835953, “Formulation Composition and Process Affect Counterion for CSP7 Peptide” (Pharmaceutics, 2019)
Like-named read-outs stand apart in the source and are kept apart here. Each block holds one molecule with its values, some of them ahead of it. Where no end group is shown, it is not given here.

Columns and labels:
[1] = cited from earlier work
[2] = Solution storage stability (HPLC recovery); type: physicochemical
Method: (§1) The peptide solution was prepared in DPBS and TBS at 0.5 mg·ml^−1 of free peptide. The ammonium hydroxide was added to the solution to dissolve the peptide until a clear solution was obtained.
The peptide solutions were stored at −80 °C, −20 °C, 2−8 °C, and at room temperature (25 °C). The samples were collected after 24 h and 48 h and analyzed using HPLC as described in Section 2.6 below.
(§2) CSP7 was chemically analyzed with a Thermo Scientific™ Dionex™ UltiMate™ 3000 HPLC System (Thermo Scientific, Sunnyvale, CA, USA) with a wavelength of 220 nm. The two mobile phases were designated Phase A (0.1% trifluoroacetic acid in water) and Phase B (0.09% trifluoroacetic acid in a mixture of 20:80 water and acetonitrile). The HPLC gradient that operated at 1.0 mL·min^−1 ran from 25% to 35% for mobile Phase B for 20 min then equilibrated at 25% for 5 min. An Ultimate 3000 Autosampler was utilized to inject 20 μL samples. Injections were passed through a Phenomenex® Luna 5 μm C18(2) 100 Å, 150 mm × 4.6 mm (Phenomenex, Torrance, CA, USA), maintained at ambient temperature. The retention time of CSP7 was approximately 8.3 min. The standard curve of the CSP7 (concentrations of 0.015625–1.00 mg·mL^−1) were prepared. All analyses maintained linearity in the range tested. Chromeleon Version 6.80 software (Thermo Scientific) was used to process all chromatography data.

[3] = type: physicochemical; conditions: DPBS; for Recovery of CSP7 in the aggregates / Recovery of CSP7 in the supernatant: 12 h shaking
Method: as §1
The peptide solutions were shaken on a VWR standard orbital shaker model 1000 (Radnor, PA, USA) at 200 rpm at 5 °C and 25 °C. The samples were collected at 0.5, 1, 3, 6, and 12 h, and they were analyzed using HPLC as described in Section 2.6 below. The CSP7 aggregates were also collected and analyzed using ^1H-NMR as described in Section 2.14 below.
as §2

[4] = Water sorption-desorption isotherm (dynamic vapor sorption); type: physicochemical; conditions: bulk powder, 25 °C, sorption-desorption cycle
Method: Water sorption isotherms at 25 °C were determined for lyophilized formulations using a dynamic vapor sorption (DVS-1) microbalance (Surface Measurement Systems, London, UK). A quartz pan was filled with about 8–10 mg of powder. Samples were dried with nitrogen gas until a baseline was established less than 0.002% change in dm/dt for 120 min. Each formulation was run through a full sorption-desorption cycle from 0% to 90% RH in steps of 10% RH at 25 °C. Humidity was increased/decreased by 10% after equilibrium was reached, as determined by a dm/dt less than 0.0075% within an interval of 5 min. Sorption-desorption isotherms were calculated and plotted based on their percent change in mass compared to the initial dry formulation weight (Equation (2)):(2) % Mass sorption/desorption =(Increase or decrease in mass from water sorption/desorption/mass of dry powder at initial equilibration (0% RH))× 100

[5] = type: physicochemical
Method: as §1
Freeze-thaw cycles were studied at −20 °C and −80 °C. The peptide solutions were frozen at each temperature for 1 h and then thawed at room temperature (25 °C) for 1 h. The freeze-thaw cycle was repeated for 5 cycles. The samples were collected at the end of each cycle and analyzed using HPLC as described in Section 2.6 below.
as §2

[6] = Molar ratio of counterions to CSP7 by solution 1H/19F NMR; type: physicochemical; conditions: bulk powder, initial vs after exposure to 90% RH, Equation (6)
Method: We acquired ^1H-NMR spectra using a Varian® NMR 600 MHz Spectrometer (Agilent Inc., Palo Alto, CA, USA) at 25 °C. The lyophilized samples were reconstituted in deuterium oxide at 1.0 mg·mL^−1. We added 5 μL of 1 N NaOH/D2O was added to the sample to dissolve the peptides. Solutions were then transferred to 5 mm NMR tubes for NMR data acquisition. Chemical shifts were referenced to a residual solvent, H2O, at 4.61 ppm. At this time, the ^1H-NMR spectra were acquired using an Agilent Direct Drive 600 spectrometer, operating at a proton frequency of 599.75 MHz (14.1 T) at 298 K, equipped with an AutoX DB probe. All ^1H-NMR spectra were recorded in D2O after 128 cycles for each sample. The molar ratio of counterion to peptide was calculated according to the peak area of the methyl group of CSP7 (0.85, 0.93, and 1.03 ppm; 18 H atoms in total) and the methyl group of the acetate counterion (1.75 ppm; 3 H atoms). […]
We acquired ^19F-NMR spectra using a Varian® NMR 600 MHz Spectrometer (Agilent Inc., Palo Alto, CA, USA) at 25 °C. […] All ^19F NMR spectra were recorded in D2O after 512 cycles for each sample. The molar ratio of counterion to peptide was calculated according to the peak area of fluorine atoms of the trifluoroacetate counterion (−75.5 ppm, 3 F atoms) and the […] (−107.7, −110.9, and −133.5 ppm; 1F atom each). […]

[7] = physchem; type: physicochemical
Method: The samples were shaken on a vortex mixer for 5 min and on an orbital shaker at 100 rpm for 3 h. The samples were collected and centrifuged at 12,000 rpm for 15 min. The supernatants of the samples were collected and analyzed using HPLC as described in Section 2.6 below.
as §2

[8] = Thermogravimetric analysis overlaid with DSC; conditions: after boiling at ~190 °C (melting at ~130 °C)
Method: Thermogravimetric Analysis (TGA) was performed for ammonium acetate and ammonium TFA using a TA Thermogravimetric Analyzer Q500 (TA, Instruments, New Castle, DE, USA). Standard aluminum pans were filled with about 5–7 mg of powder. Temperature ramp experiments were performed from 30 °C to 300 °C at a rate of 5 °C·min^−1 with a nitrogen purge at 50 mL·min^−1.
Differential scanning calorimetry (DSC) analysis was performed using a TA Instruments 175 Model Auto Q20 DSC. Samples of 5–7 mg were weighed and placed into standard aluminum pans. The scans were performed at a ramp rate of 5 °C·min^−1 in the range of 30–300 °C. During the analyses, high-purity nitrogen flowed through the sample chamber at a rate of 50 mL·min^−1.

Molecule: CC(=O)O.N [ammonium acetate]
Vapor pressure ([1]; at 25 °C): 13.9 mm Hg
Boiling point [1]: 138.5 °C

Recovery in bulk solution after storage ([2]; DPBS, 24 h, 5 °C): 99.9 ± 0.1%
Recovery in bulk solution after storage ([2]; DPBS, 24 h, 25 °C): 100.1 ± 0.1%
Recovery in bulk solution after storage ([2]; DPBS, 24 h, −20 °C): 100.2 ± 0.8%
Recovery in bulk solution after storage ([2]; DPBS, 24 h, −80 °C): 100.0 ± 0.1%
Recovery in bulk solution after storage ([2]; DPBS, 48 h, 5 °C): 99.9 ± 0.1%
Recovery in bulk solution after storage ([2]; DPBS, 48 h, 25 °C): 99.9 ± 0.3%
Recovery in bulk solution after storage ([2]; DPBS, 48 h, −20 °C): 100.3 ± 0.7%
Recovery in bulk solution after storage ([2]; DPBS, 48 h, −80 °C): 100.0 ± 0.1%
Recovery in bulk solution after storage ([2]; TBS, 24 h, 5 °C): 100.1 ± 0.2%
Recovery in bulk solution after storage ([2]; TBS, 24 h, 25 °C): 100.2 ± 0.3%
Recovery in bulk solution after storage ([2]; TBS, 24 h, −20 °C): 100.2 ± 0.2%
Recovery in bulk solution after storage ([2]; TBS, 24 h, −80 °C): 100.1 ± 0.2%
Recovery in bulk solution after storage ([2]; TBS, 48 h, 5 °C): 100.1 ± 0.1%
Recovery in bulk solution after storage ([2]; TBS, 48 h, 25 °C): 100.3 ± 0.1%
Recovery in bulk solution after storage ([2]; TBS, 48 h, −20 °C): 100.5 ± 0.2%
Recovery in bulk solution after storage ([2]; TBS, 48 h, −80 °C): 100.5 ± 0.4%
Recovery of CSP7 in DPBS and TBS ([2]; after 48 h storage at −80 °C, −20 °C, 5 °C and 25 °C): about 100%
Recovery of CSP7 in the aggregates ([3]; 5 °C): 31.7 ± 2.3%
Recovery of CSP7 in the supernatant ([3]; 5 °C): 67.8 ± 5.8%
Recovery of CSP7 in the aggregates ([3]; 25 °C): 38.3 ± 2.8%
Recovery of CSP7 in the supernatant ([3]; 25 °C): 59.7 ± 1.5%
Shaking time after which peptide aggregation was found ([3]; orbital shaker, 5 °C and 25 °C): 6 h
Decrease in weight in moisture desorption isotherm compared to initial weight [4]: 6.36%
CSP7 remaining in DPBS and TBS [5]: about 100%
Recovery in bulk solution after freeze-thaw ([5]; DPBS, −20 °C, cycle 1): 100.3 ± 0.2%
Recovery in bulk solution after freeze-thaw ([5]; DPBS, −20 °C, cycle 2): 100.7 ± 0.1%
Recovery in bulk solution after freeze-thaw ([5]; DPBS, −20 °C, cycle 3): 100.7 ± 0.1%
Recovery in bulk solution after freeze-thaw ([5]; DPBS, −20 °C, cycle 4): 101.0 ± 0.2%
Recovery in bulk solution after freeze-thaw ([5]; DPBS, −20 °C, cycle 5): 101.3 ± 0.2%
Recovery in bulk solution after freeze-thaw ([5]; DPBS, −80 °C, cycle 1): 99.8 ± 0.2%
Recovery in bulk solution after freeze-thaw ([5]; DPBS, −80 °C, cycle 2): 100.1 ± 0.1%
Recovery in bulk solution after freeze-thaw ([5]; DPBS, −80 °C, cycle 3): 100.2 ± 0.2%
Recovery in bulk solution after freeze-thaw ([5]; DPBS, −80 °C, cycle 4): 100.4 ± 0.1%
Recovery in bulk solution after freeze-thaw ([5]; DPBS, −80 °C, cycle 5): 100.9 ± 0.1%
Recovery in bulk solution after freeze-thaw ([5]; TBS, −20 °C, cycle 1): 99.4 ± 0.3%
Recovery in bulk solution after freeze-thaw ([5]; TBS, −20 °C, cycle 2): 99.6 ± 0.1%
Recovery in bulk solution after freeze-thaw ([5]; TBS, −20 °C, cycle 3): 99.7 ± 0.2%
Recovery in bulk solution after freeze-thaw ([5]; TBS, −20 °C, cycle 4): 99.8 ± 0.2%
Recovery in bulk solution after freeze-thaw ([5]; TBS, −20 °C, cycle 5): 100.2 ± 0.1%
Recovery in bulk solution after freeze-thaw ([5]; TBS, −80 °C, cycle 1): 99.9 ± 0.3%
Recovery in bulk solution after freeze-thaw ([5]; TBS, −80 °C, cycle 2): 100.3 ± 0.2%
Recovery in bulk solution after freeze-thaw ([5]; TBS, −80 °C, cycle 3): 100.4 ± 0.2%
Recovery in bulk solution after freeze-thaw ([5]; TBS, −80 °C, cycle 4): 100.7 ± 0.2%
Recovery in bulk solution after freeze-thaw ([5]; TBS, −80 °C, cycle 5): 100.6 ± 0.4%
Percentage of mass loss calculated from NMR molar ratios of acetate to CSP7 [6]: 6.37%
solubility at 3 h ([7]; pH 2, Solubility): 701 ± 153 µg/mL
solubility at 3 h ([7]; pH 3.5, Solubility): 241 ± 7 µg/mL
solubility at 3 h ([7]; pH 4.5, Solubility): 160 ± 3 µg/mL
solubility at 3 h ([7]; pH 5.5, Solubility): 174 ± 16 µg/mL
solubility at 3 h ([7]; pH 6.5, Solubility): 178 ± 13 µg/mL
solubility at 3 h ([7]; pH 7.5, Solubility): 347 ± 14 µg/mL
solubility at 3 h ([7]; pH 10, Solubility): 2880 ± 201 µg/mL
Molecule: FTTFTVT [CSP7 acetate]

Decrease in weight in moisture desorption isotherm compared to initial weight [4]: no change in weight
Solubility ([7]; 3 h, pH 10): 4134 ± 320 µg/mL
solubility at 3 h ([7]; pH 8, Solubility): 1220 ± 24 µg/mL
Molecule: FTTFTVT [CSP7 TFA]

Molecule: N.O=C(O)C(F)(F)F [ammonium TFA]
Mass remaining in TGA [8]: 0%
